Source: patent US9476053B2, “Methods and compositions for inhibition of immune responses and autoimmunity” (Dynavax Technologies Corporation, priority 2007, dated 2016)
Where two headings read alike, the source gives them in different places.

Tests used:
[1] = test system: cells infiltrating inflamed skin; test: Tape-stripping skin inflammation in 129 mice, gene expression of infiltrating cells by Taqman; type: in vivo, mouse; details: IRS 100 μg s.c. or i.v. or locally
Description: PDC infiltrate the inflamed mouse skin. 129 mice were mechanical stripped 12 times with tape or left untreated as control. After 16 hr mice were euthanized and the skin was collected and digested for 1 hr with a solution containing Liberase 0.28 u/ml and the cellular content was analyzed by flow cytometry. A) depicts an example of the facs plot of plasmacytoid dendritic cells PDC were defined to be CD11c+, […]) Cells infiltrating the skin were stimulated in vitro with an immunostimulatory sequence […] ID NO:125), wherein upper case letters represent PS […] lower case letters represent PO linkages) (1 μM) and IFN-α was measured in the supernatant by ELISA. Cells infiltrating inflamed skin show an IFN-α inflammatory gene signature which is preventable by treatment with IRS. Skin of 129 mice was mechanical inflamed by tape stripping as described in FIG. 39. Mice were stripped only or stripped and treated with IRS (SEQ ID NO:123) (100 μg) either administered s.c. or i.v. or locally on the inflamed skin. A group of mice was left completely untreated to serve as controls. Skin was processed as described in FIG. 39 and RNA was extracted from the infiltrating cells using an RNA kit from Quiagen according to manufacture instruction. Gene expression of specific genes was measured by Taqman. […] IRS can target skin inflammation in vivo.

PDC [2] = test: Glucocorticoid induced cell death in lupus prone (NZB×NZW)F1 mice treated with DEX plus IRS; type: in vivo, mouse; details: DEX 500 μg plus IRS 100 μg, spleen
Description: Next, the ability of immunoregulatory sequences to restore responsiveness to glucocorticoid treatment in lupus prone mice (NZB×NZW)F1 was evaluated.
To test whether IRPs comprising an IRS restore sensitiveness to glucocorticoid induced cell death in autoimmune prone animals, Lupus prone mice (NZB×NZW)F1 mice treated with 500 μg of Dexthametasone (DEX) alone or DEX (500 μg) plus IRS (SEQ ID NO: 123) (100 μg) or DEX (500 μg) plus IRS (SEQ ID NO: 123) (100 μg) or DEX (500 μg) plus CTRL oligo (100 μg). Viability of the different cell type was evaluated as described in Example 9.
Cells were identified to be PDC by the surface presence of B220, CD11c, and PDCA1 marker. Myeloid dendritic cells were identified as to be CD11c positive and B220 negative. B-cells were identified as B220 positive cells and CD11c negative. Monocytes were identified as CD11b positive. […] IRS restored sensitiveness to glucocorticoid induced cell death in autoimmune prone animals.

PDC [3] = test: In vivo PDC sensitivity to glucocorticoid in 129 mice treated with DEX plus CpG plus IRS; design: species or system mouse; details: DEX 1000 μg plus CpG 50 μg plus IRS 100 μg
Description: To investigate whether IRPs comprising an IRS restore in vivo PDC sensitivity to glucocorticoid in mice treated with CpG-TLR9 ligand, 129 mice were treated with the glucocorticoid Dexthametasone (DEX; 1000 μg) alone or DEX (1000 μg) plus a immunostimulatory sequence CpG-C ISS C274 (“ISS”; […]. Viability of the different cell type was evaluated as described in Example 9.
Cells were identified to be PDC by the surface presence of B220, CD11c, and PDCA1 marker. Myeloid dendritic cells were identified as to be CD11c positive and B220 negative. B-cells were identified as B220 positive cells and CD11c negative. Monocytes were identified as CD11b positive. Similar results were obtained using blood (data not shown). […] IRPs comprising an IRS restored in vivo PDC sensitivity to glucocorticoid in mice treated with CpG-TLR9 ligand.

[4] = test system: IFN-α production in PDC cells; type: cell-based, human
[5] = test system: plasmacytoid dendritic cells (PDCs); type: cell-based, human
[6] = influenza virus and SEQ ID NO:123 compared to influenza virus alone, hydroxycortisone 1×10^−8 M
[7] = influenza virus, no hydroxycortisone present

Substance: 5′-TGCTCCTGGAGGGGTTGT-3′ (chemistry not given here) [SEQ ID NO:123]
- IFN-α inflammatory gene signature of cells infiltrating inflamed skin [1]: preventable
- sensitiveness to glucocorticoid induced cell death in autoimmune prone animals (PDC [2]): restored
- in vivo PDC sensitivity to glucocorticoid in mice treated with CpG-TLR9 ligand (PDC [3]): restored
- IFN-α production inhibited [4, 6]: 92%
- IFN-α inhibition [4, 7]: completely inhibited
- reduction in the amount of hydroxycortisone necessary to achieve 50% death of PDCs ([5]; HSV plus SEQ ID NO:123 versus HSV): 37 fold
- reduction in the amount of hydroxycortisone necessary to achieve 50% death of PDCs ([5]; ISS plus SEQ ID NO:123 versus ISS): 23 fold
- percent survival of PDCs compared to influenza virus alone ([5]; combination with influenza virus, hydroxycortisone 1×10^−6 M, 48H): statistically significant decrease
- decrease in survival of PDC cells [5, 6]: 23%
- reduction in the amount of hydroxycortisone necessary to achieve 50% death of PDCs ([5]; influenza virus plus SEQ ID NO:123 versus influenza virus): 204 fold
- difference in PDC survival [5, 7]: no difference
